The source of these data is EP4775570A1, “CYP11A1 INHIBITOR, PREPARATION METHOD THEREFOR AND USE THEREOF” (Shenzhen Zhongge Biological Technology Co., Ltd., priority 2023, dated 2025).

Some results are limits rather than exact numbers.

This assay has as its target T1, CYP11A1 (Homo sapiens, UniProt P05108).
T1 construct: host or cells: NCI-H295R
T1 sequence (P05108 40-521): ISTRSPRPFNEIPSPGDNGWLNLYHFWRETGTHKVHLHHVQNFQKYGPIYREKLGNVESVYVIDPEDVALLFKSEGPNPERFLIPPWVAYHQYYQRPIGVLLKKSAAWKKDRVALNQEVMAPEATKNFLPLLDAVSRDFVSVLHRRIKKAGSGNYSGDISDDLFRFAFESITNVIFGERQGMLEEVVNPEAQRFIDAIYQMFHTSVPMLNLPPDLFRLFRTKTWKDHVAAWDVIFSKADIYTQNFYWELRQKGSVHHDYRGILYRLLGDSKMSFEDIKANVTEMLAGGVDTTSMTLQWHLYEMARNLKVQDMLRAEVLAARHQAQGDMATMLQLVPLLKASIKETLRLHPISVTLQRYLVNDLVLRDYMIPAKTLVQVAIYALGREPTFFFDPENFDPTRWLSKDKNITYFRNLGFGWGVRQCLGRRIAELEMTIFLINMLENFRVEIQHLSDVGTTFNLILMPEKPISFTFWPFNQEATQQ
Briefly: NCI-H295R cellular pregnenolone biosynthesis inhibition assay (ELISA method). Format: cell-based. As to conditions: NCI-H295R cells, 3 days incubation, pregnenolone in cell supernatant by ELISA; read-out: IC50. On the procedure: The experiment aims to test the inhibitory effect of the compounds of the present disclosure on cellular pregnenolone biosynthesis, and to assess the inhibitory effect of the compounds on CYP11A1 target based on their IC50 values.
NCI-H295R cells (MINGZHOUBIO, MZ-2138) cultured in NCI-H295R complete medium (MINGZHOUBIO, MCM-0399).
Using culture medium, NCI-H295R cells were seeded into a new 384-well cell culture plate (Greiner, 781091) at a density of 5,000 cells per well, with 45µL of cell suspension per well. The test compounds were prepared by adding 5µL of compound solution at 10× concentration to each well, to a maximum final concentration of 10µM, followed by 3× serial dilution for 10 points, with a final DMSO concentration of 0.1%, centrifuging at 1,000 rpm for 1 minute at room temperature, and then incubating in a 5% CO2 cell incubator at 37°C for 3 days.
Pregnenolone ELISA kit (Abnova, KA1912) was used for detecting the content of pregnenolone in the supernatant of cell culture. Before detection, the reagents were allowed to come back to room temperature for 1 hour. After taking out the 384-well plate, the cellular supernatant was pipetted and subjected to 5× dilution with the Assay Buffer provided in the kit. A working solution of competitive molecule and a washing solution in accordance with the instructions was prepared. 50µL of diluted cellular supernatant were pipetted into the 96-well plate provided in the ELISA kit, added with 100µL of working solution of competitive molecule per well and the plate was incubated at room temperature for 1.5 hours. After discarding the liquid, the plate was washed with 300µL of washing solution per well three times and dried. After adding 150 µL of substrate chromogenic solution per well, the plate was incubated at room temperature for 10-15 minutes. After adding 50 µL of termination solution per well, the plate was incubated at room temperature for 10-15 minutes and read for absorbance at 450nm with Envision HTS Multilabel Reader.
The wells added with 1µM ODM-208 were defined as 100% inhibition (positive control), the wells containing DMSO at a final concentration of 0.1% were defined as 0% inhibition (negative control), and inhibitory ratio = (absorbance of tested sample - average absorbance of negative control)/(average absorbance of positive control - average absorbance of negative control)*100%. The data were subjected to four-parameter fitting using GraphPad Prism to calculate the IC50 values of the compounds.

As for `CS(=O)(=O)N1CCC(CCc2cc(F)c(CN3Cc4ccccc4C3)cc2C#N)CC1` [compound 59], the IC50 is less than 100 nM.
Under `CS(=O)(=O)N1CCC(C=Cc2ccc(CN3Cc4ccccc4C3)cc2C#N)CC1` [compound 60] stands less than 100 nM.
As to `CS(=O)(=O)N1CCC(C=Cc2cc(F)c(CN3Cc4ccccc4C3)cc2C#N)CC1` [compound 61], the IC50 is 100 to 300 nM.
The value for `COc1cc(CN2Cc3cccnc3C2)ccc1CCC1CCN(S(C)(=O)=O)CC1` [compound 62] was 100 to 300 nM; that for `COc1cc(CN2Cc3ccncc3C2)ccc1CCC1CCN(S(C)(=O)=O)CC1` [compound 63] was less than 100 nM; that for `COc1c(CCC2CCN(S(C)(=O)=O)CC2)cc(F)c(CN2Cc3ccccc3C2)c1F` [compound 64] was less than 100 nM.
Under `COc1nc(CN2Cc3ccccc3C2)ccc1CCC1CCN(S(C)(=O)=O)CC1` [compound 65] stands 100 to 300 nM.
Consider `COc1cc(CN2Cc3cccc(F)c3C2)c(F)cc1CCC1CCN(S(C)(=O)=O)CC1` [compound 66], for which the IC50 is less than 100 nM.
With `CCS(=O)(=O)N1CCC(CCc2ccc(CN3Cc4ccccc4C3)cc2OC)CC1` [compound 67], the IC50 is less than 100 nM.
As for `COc1cc(CN2Cc3ccccc3C2)ccc1CCC1CCN(C(=O)CC#N)CC1` [compound 68], the IC50 was less than 100 nM.
The value for `COc1cc(CN2Cc3ccccc3C2)ccc1CCC1CCN(S(=O)(=O)C2CC2)CC1` [compound 69] was less than 100 nM.
In the case of `COc1cc(CN2Cc3ccccc3C2)ccc1CCC1CCN(C(C)=O)CC1` [compound 70], the IC50 was less than 100 nM.
Under `COc1cc(CN2Cc3ccccc3C2)ccc1CCC1CCN(C(=O)C(F)(F)F)CC1` [compound 71] stands 100 to 300 nM.
On to `CCOc1cc(CN2Cc3ccccc3C2)ccc1CCC1CCN(S(C)(=O)=O)CC1` [compound 73], for which the IC50 lay in the range of 100 to 300 nM.
As to `CC(C)c1cc(CN2Cc3ccccc3C2)ccc1CCC1CCN(S(C)(=O)=O)CC1` [compound 74], the IC50 was less than 100 nM.
For `COc1cc(CN2Cc3ccccc3C2)ccc1CCC1CCN(S(=O)(=O)c2ccc(C)cc2)CC1` [compound 75], the IC50 is less than 100 nM.
The value for `CC(C)Oc1cc(CN2Cc3ccccc3C2)ccc1CCC1CCN(S(C)(=O)=O)CC1` [compound 76] was 100 to 300 nM; that for `COc1cc(CN2Cc3ccccc3C2)ccc1CCC1CCN(S(=O)(=O)C(F)(F)F)CC1` [compound 77] was 100 to 300 nM.
Under `COc1cc(CN2Cc3ccccc3C2)ccc1CCC1CCN(S(=O)(=O)c2cccs2)CC1` [compound 78] stands less than 100 nM; under `CNC(=O)N1CCC(CCc2ccc(CN3Cc4ccccc4C3)cc2OC)CC1` [compound 79], less than 100 nM; under `COC(=O)N1CCC(CCc2ccc(CN3Cc4ccccc4C3)cc2OC)CC1` [compound 80], less than 100 nM.
As for `COc1cc(CN2Cc3ccccc3C2)ccc1CCC1CCN(C(=O)C(C)(C)C)CC1` [compound 81], the IC50 is less than 100 nM.
For the compound `C=CS(=O)(=O)N1CCC(CCc2ccc(CN3Cc4ccccc4C3)cc2OC)CC1` [compound 82], the IC50 is 100 to 300 nM.
On to `CS(=O)(=O)N1CCC(CCc2ccc(CN3Cc4ccccc4C3)o2)CC1` [compound 83], for which the IC50 was greater than 300 nM.
Under `CS(=O)(=O)N1CCC(CCc2ccc(CN3Cc4ccccc4C3)cc2Cl)CC1` [compound 84] stands less than 100 nM; under `COc1c(CCC2CCN(S(C)(=O)=O)CC2)ccc(CN2Cc3ccccc3C2)c1F` [compound 85], less than 100 nM; under `CS(=O)(=O)N1CCC(CCc2ncc(CN3Cc4ccccc4C3)s2)CC1` [compound 86], 100 to 300 nM.
The value for `CS(=O)(=O)N1CCC(CCc2cnc(CN3Cc4ccccc4C3)s2)CC1` [compound 87] was greater than 300 nM; that for `COc1cc(CN2Cc3ccccc3C2)ccc1CCC1CCS(=O)(=O)CC1` [compound 88] was greater than 300 nM; that for `COc1nc(CN2Cc3ccccc3C2)c(F)cc1CCC1CCN(S(C)(=O)=O)CC1` [compound 89] was 100 to 300 nM.
Turning to `Cn1c(CN2Cc3ccccc3C2)ccc(CCC2CCN(S(C)(=O)=O)CC2)c1=O` [compound 90], the IC50 was less than 100 nM.
Turning to `Cn1c(CN2Cc3ccccc3C2)c(F)cc(CCC2CCCN(S(C)(=O)=O)C2)c1=O` (stereo not drawn) [compound 91], the IC50 is greater than 300 nM.
The value for `COc1cc(CN2Cc3ccccc3C2)ccc1CCC1(O)CCN(S(C)(=O)=O)CC1` [compound 92] was 100 to 300 nM; that for `COc1cc(CN2Cc3ccccc3C2)ccc1C#CC1(O)CCN(S(C)(=O)=O)CC1` [compound 93] was 100 to 300 nM.
In the case of `CS(=O)(=O)N1CCC(CCc2cc(F)c(CN3Cc4ccccc4C3)[nH]c2=O)CC1` [compound 94], the IC50 is 100 to 300 nM.
Regarding `CS(=O)(=O)N1CCC(CCc2sc(CN3Cc4ccccc4C3)cc2Br)CC1` [compound 95], the IC50 is greater than 300 nM.
For `CS(=O)(=O)N1CCC(CCc2sc(CN3Cc4ccccc4C3)cc2C#N)CC1` [compound 96], the IC50 was greater than 300 nM.
The value for `COc1cc(CN2Cc3ccccc3C2)ccc1C#CC1=CCS(=O)(=O)CC1` [compound 97] was greater than 300 nM; that for `Cn1c(CN2Cc3cccnc3C2)c(F)cc(CCC2CCN(S(C)(=O)=O)CC2)c1=O` [compound 98] was 100 to 300 nM; that for `Cn1c(CN2Cc3ccncc3C2)c(F)cc(CCC2CCN(S(C)(=O)=O)CC2)c1=O` [compound 99] was greater than 300 nM.
The value for `Cn1c(CN2Cc3cccc(F)c3C2)c(F)cc(CCC2CCN(S(C)(=O)=O)CC2)c1=O` [compound 100] was greater than 300 nM.
The value for `Cn1c(CN2Cc3ccc(F)cc3C2)c(F)cc(CCC2CCN(S(C)(=O)=O)CC2)c1=O` [compound 101] was greater than 300 nM.
Regarding `CC(c1c(F)cc(CCC2CCN(S(C)(=O)=O)CC2)c(=O)n1C)N1Cc2ccccc2C1` (stereo not drawn) [compound 102], the IC50 was less than 100 nM.
The value for `Cn1c(CN2Cc3ccccc3C2)c(F)cc(C=CC2CCN(C(=O)OC(C)(C)C)CC2)c1=O` [compound 103] was 100 to 300 nM; that for `Cn1c(CN2Cc3ccccc3C2)c(F)cc(C=CC2CCN(S(C)(=O)=O)CC2)c1=O` [compound 104] was less than 100 nM.
For `Cn1c(CN2Cc3ccccc3C2)c(F)cc(C=CC2CCN(C(=O)OC(C)(C)C)CC2)c1=O` [compound 105], the IC50 is less than 100 nM.
On to `[2H]C([2H])([2H])n1c(CN2Cc3ccccc3C2)c(F)cc(CCC2CCN(S(C)(=O)=O)CC2)c1=O` [compound 106], for which the IC50 was less than 100 nM.
Take `CCn1c(CN2Cc3ccccc3C2)c(F)cc(CCC2CCN(S(C)(=O)=O)CC2)c1=O` [compound 107]: the IC50 was less than 100 nM.
For `[2H]C(c1c(F)cc(CCC2CCN(S(C)(=O)=O)CC2)c(=O)n1C)N1Cc2ccccc2C1` (stereo not drawn) [compound 108], the IC50 is less than 100 nM.
Under `CC1CC(CCc2cc(F)c(CN3Cc4ccccc4C3)n(C)c2=O)CCN1S(C)(=O)=O` (stereo not drawn) [compound 109] stands less than 100 nM; under `CCS(=O)(=O)N1CCC(C=Cc2cc(F)c(CN3Cc4ccccc4C3)n(C)c2=O)CC1` [compound 110], less than 100 nM.
Under `Cn1c(CN2Cc3ccccc3C2)c(F)cc(C=CC2CCN(S(=O)(=O)C3CC3)CC2)c1=O` [compound 111] stands less than 100 nM.
On to `Cn1c(CN2Cc3ccccc3C2)c(F)cc(CCC2CCN(S(C)(=O)=O)CC2(C)C)c1=O` (stereo not drawn) [compound 114], for which the IC50 was less than 100 nM.
On to `CC1CC(C#Cc2cc(F)c(CN3Cc4ccccc4C3)n(C)c2=O)CCN1C(=O)OC(C)(C)C` (stereo not drawn) [compound 115], for which the IC50 is less than 100 nM.
On to `[2H]C([2H])(c1c(F)cc(CCC2CCN(S(C)(=O)=O)CC2)c(=O)n1C)N1Cc2ccccc2C1` [compound 116], for which the IC50 is less than 100 nM.
Under `CC1CC(CCc2cc(F)c(CN3Cc4ccccc4C3)n(C)c2=O)CCN1C(=O)OC(C)(C)C` (stereo not drawn) [compound 117] stands less than 100 nM; under `Cn1c(CN2Cc3ccccc3C2)c(F)cc(CCN2CCN(S(C)(=O)=O)CC2)c1=O` [compound 118], 100 to 300 nM.

The term IC50 denotes the midpoint of a concentration-inhibition curve.
